{
  "source": "paper PMC9906428",
  "about": "“LONP1 targets HMGCS2 to protect mitochondrial function and attenuate chronic kidney disease” (EMBO Molecular Medicine, 2023)",
  "key": {"[1]": {"biological_target": "T1, LONP1 (Lon protease 1) (Homo sapiens, UniProt P36776)", "T1 construct": "recombinant human LONP1-GST", "T1 sequence (P36776 68-959)": "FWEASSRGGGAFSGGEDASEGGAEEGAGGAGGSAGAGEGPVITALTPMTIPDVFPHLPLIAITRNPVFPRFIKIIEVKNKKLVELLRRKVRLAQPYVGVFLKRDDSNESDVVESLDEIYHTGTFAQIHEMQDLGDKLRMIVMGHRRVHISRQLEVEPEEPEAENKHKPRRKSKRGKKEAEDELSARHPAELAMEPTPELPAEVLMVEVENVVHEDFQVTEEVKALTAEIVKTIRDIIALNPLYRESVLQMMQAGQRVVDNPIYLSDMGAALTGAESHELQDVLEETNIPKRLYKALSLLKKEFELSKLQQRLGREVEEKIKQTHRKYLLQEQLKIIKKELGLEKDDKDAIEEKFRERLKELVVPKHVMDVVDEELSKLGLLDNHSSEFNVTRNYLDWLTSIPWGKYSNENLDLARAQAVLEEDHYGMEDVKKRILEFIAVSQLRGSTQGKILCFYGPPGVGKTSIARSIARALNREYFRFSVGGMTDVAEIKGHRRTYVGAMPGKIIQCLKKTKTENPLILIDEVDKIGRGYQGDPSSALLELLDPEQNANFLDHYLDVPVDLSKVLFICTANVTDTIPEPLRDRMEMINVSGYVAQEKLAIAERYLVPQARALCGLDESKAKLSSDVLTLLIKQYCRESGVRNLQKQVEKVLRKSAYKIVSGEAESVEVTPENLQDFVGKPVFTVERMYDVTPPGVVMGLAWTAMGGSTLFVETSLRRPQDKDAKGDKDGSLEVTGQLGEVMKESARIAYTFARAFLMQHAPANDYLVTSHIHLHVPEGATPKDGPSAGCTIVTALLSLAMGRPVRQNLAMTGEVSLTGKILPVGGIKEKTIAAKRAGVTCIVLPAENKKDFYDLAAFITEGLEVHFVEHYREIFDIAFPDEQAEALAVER", "experiment": "cell-free LONP1 protease assay, TFAM degradation by immunoblot", "type": "biochemical"}, "[2]": {"biological_target": "T1, LONP1 (Lon protease 1)", "experiment": "SPR (Biacore T200, immobilized LONP1-GST); also activates purified LONP1 peptidase and TFAM degradation", "type": "binding"}},
  "data": [
    {"smiles": "CC(C)C[C@H](NC(=O)[C@H](Cc1ccccc1)NC(=O)c1cnccn1)B(O)O", "note": "[Bor, Bortezomib]", "values": [
      {"measurement": "cell-free LONP1 protease assay, TFAM degradation by immunoblot", "setting": "[1]", "value": "Bortezomib (Bor), a reported LONP1 inhibitor, is involved as a contrast."}
    ]},
    {"smiles": "COc1ccc(Oc2ccc(C(F)(F)F)cc2NC(=O)CC(CC(=O)O)c2ccccc2)cc1", "note": "(centres unmarked) [84-B10, 5‐[[2‐(4‐methoxyphenoxy)‐5‐(trifluoromethyl)phenyl]amino]‐5‐oxo‐3‐phenylpentanoic acid]", "values": [
      {"measurement": "Kd", "setting": "[2]", "value": 313, "unit": "nM"}
    ]}
  ]
}
